The values that follow are results of earlier work, collected in patent publication US20100310597A1, “ANTI-OFLOXACIN MONOCLONAL ANTIBODY AND IMMUNOASSAY OF OFLOXACIN USING THE SAME” (SEKISUI MEDICAL CO., LTD, priority 2007, published 2010).

SMILES strings stand for the structures.

The conditions of this data set: background statement.

Consider `C[C@H]1COc2c(N3CCN(C)CC3)c(F)cc3c(=O)c(C(=O)O)cn1c23` [levofloxacin, (−)-(S)-9-fluoro-2,3-dihydro-3-methyl-10-(4-methyl-1-piperazinyl)-7-oxo-7H-pyrido[1,2,3-de][1,4]benzoxazine-6-carboxylic acid], for which the “Antibiotic activity relative to ofloxacin” value is reported as “approximately twice”.
